From patent publication US8912125B2, “Control of trifluralin-resistant weeds with dithiopyr” (Dow AgroSciences, LLC., priority 2010, dated 2014)

Assays:
[1] = tested on: ryegrass biotype 1145.4 (with trifluralin resistance); test: Pre-emergence (simulated IBS) pot test, % survival of ryegrass biotype 1145.4; assay type: in vivo; conditions: 5 weeks after herbicide application
Experimental: (§1) Five ryegrass biotypes with varying degrees of resistance to trifluralin (1251, 1216.1, 1252.6, 1252.2 and 1145.4) and two non-resistant biotypes (SLR4 and 1261.1) were tested. Dithiopyr was applied using a simulated incorporated by sowing (IBS) system for ryegrass and wheat.
(§2) Ryegrass: A set volume of seeds (50 seeds approx) were placed onto the surface of sandy potting soil in 0.55 L polyethylene pots. Dithiopyr was sprayed directly onto the ryegrass seed soil surface at rates of 250, 500 and 1000 grams active ingredient per hectare (g ai/ha). The seed and soil were then covered with a soil mixture to a depth of 5 mm (the soil mixture included 385 L peatmoss, 615 L coarse sand, 1024 g Ag. lime, 564 g hydrated lime, and 3.7 Kg Osmocote® Exact™ (Everris International B.V.; Geldermalsen, The Netherlands) with a pH of 6.3).
(§3) Herbicide application was performed using a laboratory boom sprayer equipped with T-jet fan nozzles at a speed of 1 ms^−1. Output from the sprayer was calibrated at 110 L ha^−1 at a pressure of 250 kPa. Using this testing procedure, volatilization losses were minimized by the immediate and even incorporation of each herbicide. The experiment was established as a randomized block design with three replications and was conducted outdoors during mid winter (July-August).
(§4) Herbicide effects on wheat and ryegrass seedlings were measured 5 weeks after spraying. Seedlings were considered emerged if they had reached the 2-leaf stage at this time. Survival % was recorded by comparing the surviving number of 2-3 leaved seedlings in the sprayed treatments to the […] (Tables 1 and 2).

[2] = tested on: ryegrass biotype SLR4 (without trifluralin resistance); test: Pre-emergence (simulated IBS) pot test, % survival of ryegrass biotype SLR4; assay type: in vivo; conditions: 5 weeks after herbicide application
Experimental: as §1, §2, §3, §4

[3] = tested on: ryegrass biotype 1216.1 (with trifluralin resistance); test: Pre-emergence (simulated IBS) pot test, % survival of ryegrass biotype 1216.1; assay type: in vivo; conditions: 5 weeks after herbicide application
Experimental: as §1, §2, §3, §4

[4] = tested on: ryegrass biotype 1252.6 (with trifluralin resistance); test: Pre-emergence (simulated IBS) pot test, % survival of ryegrass biotype 1252.6; assay type: in vivo; conditions: 5 weeks after herbicide application
Experimental: as §1, §2, §3, §4

Correll wheat = test: Crop safety on wheat, pre-emergence (simulated IBS) pot test, % dry weight and % survival; assay type: in vivo, wheat (var. Correll); conditions: 5 weeks after application
Experimental: as §1
Wheat: Ten wheat seeds (var. Correll) were buried 1 cm deep. The herbicides were sprayed onto the soil surface and then the herbicide covered with another 5 mm of soil. This system of seed separation ensured crop selectivity
as §3, §4
In addition, wheat biomass was recorded by harvesting the plants and measuring dry weight to indicate crop safety. The dry weights from the treated plants were compared to the weight of untreated wheat and the percentage biomass calculated (Table 2).

[5] = tested on: ryegrass biotype 1252.2 (with trifluralin resistance); test: Pre-emergence (simulated IBS) pot test, % survival of ryegrass biotype 1252.2; assay type: in vivo; conditions: 5 weeks after herbicide application
Experimental: as §1, §2, §3, §4

[6] = tested on: ryegrass biotype 1251 (with trifluralin resistance); test: Pre-emergence (simulated IBS) pot test, % survival of ryegrass biotype 1251; assay type: in vivo; conditions: 5 weeks after herbicide application
Experimental: as §1, §2, §3, §4

[7] = tested on: ryegrass biotype 1261.1 (without trifluralin resistance); test: Pre-emergence (simulated IBS) pot test, % survival of ryegrass biotype 1261.1; assay type: in vivo; conditions: 5 weeks after herbicide application
Experimental: as §1, §2, §3, §4

Structure (SMILES)	% survival of ryegrass, Mean ([1]; 250 g ai/ha) [%]	% survival of ryegrass, Mean ([1]; 500 g ai/ha) [%]	% survival of ryegrass, Mean ([1]; 1000 g ai/ha) [%]	% survival of ryegrass, Mean ([2]; 250 g ai/ha) [%]	% survival of ryegrass, Mean ([2]; 500 g ai/ha) [%]	% survival of ryegrass, Mean ([2]; 1000 g ai/ha) [%]	% survival of ryegrass, Mean ([3]; 250 g ai/ha) [%]	% survival of ryegrass, Mean ([3]; 500 g ai/ha) [%]	% survival of ryegrass, Mean ([3]; 1000 g ai/ha) [%]	% survival of ryegrass, Mean ([4]; 250 g ai/ha) [%]	% survival of ryegrass, Mean ([4]; 500 g ai/ha) [%]	% survival of ryegrass, Mean ([4]; 1000 g ai/ha) [%]	% survival of ryegrass, Mean ([5]; 250 g ai/ha) [%]	% survival of ryegrass, Mean ([5]; 500 g ai/ha) [%]	% survival of ryegrass, Mean ([5]; 1000 g ai/ha) [%]	% survival of ryegrass, Mean ([6]; 250 g ai/ha) [%]	% survival of ryegrass, Mean ([6]; 500 g ai/ha) [%]	% survival of ryegrass, Mean ([6]; 1000 g ai/ha) [%]	% survival of ryegrass, Mean ([7]; 250 g ai/ha) [%]	% survival of ryegrass, Mean ([7]; 500 g ai/ha) [%]	other results
CSC(=O)c1c(C(F)F)nc(C(F)(F)F)c(C(=O)SC)c1CC(C)C [Dithiopyr, S,S′-dimethyl 2-(difluoromethyl)-4-(2-methylpropyl)-6-(trifluoromethyl)-3,5-pyridinedicarbothioate]	0	0	0	0	0	0	0	0	0	0	0	0	0	0	0	0	0	0	0	0	Survival (%) Mean (Correll wheat; 250 g ai/ha): 82.2%; Survival (%) Mean (Correll wheat; 500 g ai/ha): 60.0%; Survival (%) Mean (Correll wheat; 1000 g ai/ha): 28.9%; % survival of ryegrass, Mean ([7]; 1000 g ai/ha): 0%
CCCN(CCC)c1c([N+](=O)[O-])cc(C(F)(F)F)cc1[N+](=O)[O-] [Trifluralin, 2,6-dinitro-N,N-dipropyl-4-(trifluoromethyl)benzenamine]	100	100	14.1	2.9	0	0	40.4	19.1	9	33.8	13.1	26.3	29.1	13.9	3.8	97.7	68.2	27.3	5.6	0	% survival of ryegrass, Mean ([7]; 1000 g ai/ha): 1.1%
